Earlier results, collected in patent US10858575B2, “Temperature-stable corrosion inhibitor compositions and methods of use” (ChampionX USA Inc., priority 2017, dated 2020).

Settings: octanol/water

Row | Structure (SMILES) | LogP
1 | O=C1CCCO1 | −0.57

Settings: at 20° C.

Row | Structure (SMILES) | vapor pressure
2 | COCC(C)O (centres unmarked) [propylene glycol methyl ether] | 8.7 mm Hg
3 | CCCCOCCO [ethylene glycol butyl ether] | 10 mm Hg
4 | CCCCOCCOCCO [diethylene glycol butyl ether] | 30 mm Hg
5 | CCCCOC(C)COC(C)COC(C)CO (centres unmarked) [tripropylene glycol butyl ether] | 0.002 mm Hg
6 | CCOCCOCCO [diethylene glycol ethyl ether] | 0.12 mm Hg
7 | COC(C)COC(C)CO (centres unmarked) [dipropylene glycol methyl ether] | 0.28 mm Hg
8 | CCCCOCC(C)O (centres unmarked) [propylene glycol butyl ether] | 0.85 mm Hg
9 | CCCCCCOCCOCCO [diethylene glycol hexyl ether] | 0.001 mm Hg
10 | COCCOCCO [diethylene glycol methyl ether] | 0.2 mm Hg
11 | CCOCCO [ethylene glycol ethyl ether] | 3.8 mm Hg
12 | CCCOC(C)COC(C)CO (centres unmarked) [dipropylene glycol propyl ether] | 0.08 mm Hg
13 | CCCOCC(C)O (centres unmarked) [propylene glycol propyl ether] | 4.5 mm Hg
14 | CCCCCCOCCO [ethylene glycol hexyl ether] | 0.05 mm Hg
